Reference: patent US9708334B2, “Substituted 2,4,5,6-tetrahydropyrrolo[3,4-c]pyrazole and 4,5,6,7-tetrahydro-2H-pyrazolo[4,3-c]pyridine compounds as GlyT1 inhibitors” (DART NEUROSCIENCE (CAYMAN) LTD., priority 2014, dated 2017)

Biological target: T1, GlyT1 (Homo sapiens, UniProt P48067)
T1 construct: expressed in transfected cells
T1 sequence (P48067 1-706): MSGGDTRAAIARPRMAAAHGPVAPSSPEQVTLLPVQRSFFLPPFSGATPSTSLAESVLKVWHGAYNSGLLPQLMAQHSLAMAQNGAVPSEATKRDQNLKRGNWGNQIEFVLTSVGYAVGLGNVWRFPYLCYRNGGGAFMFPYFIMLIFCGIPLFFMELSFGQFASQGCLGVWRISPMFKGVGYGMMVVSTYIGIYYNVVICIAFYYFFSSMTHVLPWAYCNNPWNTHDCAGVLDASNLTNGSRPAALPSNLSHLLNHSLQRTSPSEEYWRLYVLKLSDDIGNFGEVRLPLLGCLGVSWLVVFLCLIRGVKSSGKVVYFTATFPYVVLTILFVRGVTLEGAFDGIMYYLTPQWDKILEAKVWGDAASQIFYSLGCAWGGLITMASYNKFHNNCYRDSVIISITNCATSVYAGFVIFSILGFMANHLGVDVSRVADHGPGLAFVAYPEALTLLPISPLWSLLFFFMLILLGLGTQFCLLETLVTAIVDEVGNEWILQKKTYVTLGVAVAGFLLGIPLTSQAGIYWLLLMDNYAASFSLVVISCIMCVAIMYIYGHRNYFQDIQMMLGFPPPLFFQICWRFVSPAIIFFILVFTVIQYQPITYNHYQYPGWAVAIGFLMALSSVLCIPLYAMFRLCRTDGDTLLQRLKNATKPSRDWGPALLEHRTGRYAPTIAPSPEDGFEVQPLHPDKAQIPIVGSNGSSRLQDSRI
Assay: Glycine Transporter 1 (GlyT1) uptake assay, scintillation proximity assay of [14C]-glycine uptake
Assay type: cell-based
Details: SPA, four parameter logistic fit, read-out: GlyT1 (pIC50) (converted)
In short: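 [14C]-glycine uptake read by scintillation proximity on a plate counter. IC50 from four-parameter logistic fit of dose-response data.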

Structure (SMILES)	IC50
CC(C)Oc1ccc(C#N)cc1C(=O)N1Cc2cn(-c3ccncc3)nc2C1 [Example 447, 4-(Propan-2-yloxy)-3-[2-(pyridin-4-yl)-2H 4H 5H 6H-pyrrolo[3,4-c]pyrazole-5-carbonyl]benzonitrile]	< 100 nM
CC(C)Oc1ccc(C#N)cc1C(=O)N1Cc2cn(CC3CC3)nc2C1 [Example 450, 3-[2-(Cyclopropylmethyl)-2H 4H 5H 6H-pyrrolo[3,4-c]pyrazole-5-carbonyl]-4-(propan-2-yloxy)benzonitrile]	100 to 1000 nM
C[C@H](Oc1ccc(C#N)cc1C(=O)N1Cc2cn(CC3CC3(F)F)nc2C1)C(F)(F)F (stereo partly drawn) [Example 457, 3-{2-[(2 2-Difluorocyclopropyl)methyl]-2H 4H 5H 6H-pyrrolo[3,4-c]pyrazole-5-carbonyl}-4-{[(2S)-1 1 1-trifluoropropan-2-yl]oxy}benzonitrile]	100 to 1000 nM
C[C@H](Oc1ccc(C#N)cc1C(=O)N1Cc2cnn(C3CCOCC3)c2C1)C(F)(F)F [Example 458, 3-[1-(Oxan-4-yl)-1H 4H 5H 6H-pyrrolo[3,4-c]pyrazole-5-carbonyl]-4-{[(2S)-1 1 1-trifluoropropan-2-yl]oxy}benzonitrile]	> 10000 nM
CC(C)Oc1ccc(C#N)cc1C(=O)N1Cc2cn(-c3ccnc(C4CCC4)c3)nc2C1 [Example 459, 3-[2-(2-Cyclobutylpyridin-4-yl)-2H 4H 5H 6H-pyrrolo[3,4-c]pyrazole-5-carbonyl]-4-(propan-2-yloxy)benzonitrile]	< 100 nM
C[C@H](Oc1ccc(C#N)cc1C(=O)N1Cc2cn(-c3ccnc(C4CCC4)c3)nc2C1)C(F)(F)F [Example 460, 3-[2-(2-Cyclobutylpyridin-4-yl)-2H 4H 5H 6H-pyrrolo[3,4-c]pyrazole-5-carbonyl]-4-{[(2S)-1 1 1-trifluoropropan-2-yl]oxy}benzonitrile]	< 100 nM
C[C@H](Oc1ccc(C#N)cc1C(=O)N1Cc2cn(-c3ccc(C#N)nc3)nc2C1)C(F)(F)F [Example 465, 5-[5-(5-Cyano-2-{[(2S)-1 1 1-trifluoropropan-2-yl]oxy}benzoyl)-2H 4H 5H 6H-pyrrolo[3,4-c]pyrazol-2-yl]pyridine-2-carbonitrile]	100 to 1000 nM
CC(C)Oc1ccc(C#N)cc1C(=O)N1Cc2cn(-c3ccc(C#N)nc3)nc2C1 [Example 466]	100 to 1000 nM
C[C@H](Oc1ccc(C#N)cc1C(=O)N1Cc2cn(-c3ccnc(C#N)c3)nc2C1)C(F)(F)F [Example 467, 4-[5-(5-Cyano-2-{[(2S)-1 1 1-trifluoropropan-2-yl]oxy}benzoyl)-2H 4H 5H 6H-pyrrolo[3,4-c]pyrazol-2-yl]pyridine-2-carbonitrile]	100 to 1000 nM
CC(C)Oc1ccc(C#N)cc1C(=O)N1Cc2cn(-c3ccnc(C#N)c3)nc2C1 [Example 468, 4-{5-[5-Cyano-2-(propan-2-yloxy)benzoyl]-2H 4H 5H 6H-pyrrolo[3,4-c]pyrazol-2-yl}pyridine-2-carbonitrile]	100 to 1000 nM
C[C@H](Oc1ccc(C#N)cc1C(=O)N1Cc2cn(C3CCC(F)(F)CC3)nc2C1)C(F)(F)F [Example 472, 3-[2-(4 4-Difluorocyclohexyl)-2H 4H 5H 6H-pyrrolo[3,4-c]pyrazole-5-carbonyl]-4-{[(2S)-1 1 1-trifluoropropan-2-yl]oxy}benzonitrile]	100 to 1000 nM
COc1c(C#N)ccc(OC(C)C(F)(F)F)c1C(=O)N1CCc2nn(-c3ccc(F)cc3)c(C)c2C1 (centres unmarked) [Example 473, 3-[2-(4-Fluorophenyl)-3-methyl-2H 4H 5H 6H 7H-pyrazolo[4,3-c]pyridine-5-carbonyl]-2-methoxy-4-[(1 1 1-trifluoropropan-2-yl)oxy]benzonitrile]	> 10000 nM
COc1c(C#N)ccc(OC(C)C(F)(F)F)c1C(=O)N1Cc2cnn(-c3ccc(F)cc3)c2C(C)(C)C1 (centres unmarked) [Example 474, 3-[1-(4-Fluorophenyl)-7 7-dimethyl-1H 4H 5H 6H 7H-pyrazolo[4,3-c]pyridine-5-carbonyl]-2-methoxy-4-[(1 1 1-trifluoropropan-2-yl)oxy]benzonitrile]	1000 to 10000 nM

Results, then the compound that gave them:

IC50	Structure (SMILES)
< 100 nM	C[C@H](Oc1ccc(S(C)(=O)=O)cc1C(=O)N1Cc2cnn(-c3cccc4nccn34)c2C1)C(F)(F)F [Example 446, 1-{Imidazo[1 2-a]pyridin-5-yl}-5-(5-methanesulfonyl-2-{[(2S)-1 1 1-trifluoropropan-2-yl]oxy}benzoyl)-1H 4H 5H 6H-pyrrolo[3,4-c]pyrazole]
< 100 nM	CS(=O)(=O)c1ccc(-c2cccc(F)c2)c(C(=O)N2Cc3cn(C4CCOCC4)nc3C2)c1 [Example 448, 5-[2-(3-Fluorophenyl)-5-methanesulfonylbenzoyl]-2-(oxan-4-yl)-2H 4H 5H 6H-pyrrolo[3,4-c]pyrazole]
< 100 nM	CS(=O)(=O)c1ccc(-c2cccc(F)c2)c(C(=O)N2Cc3cn(CC4CC4)nc3C2)c1 [Example 449, 2-(Cyclopropylmethyl)-5-[2-(3-fluorophenyl)-5-methanesulfonylbenzoyl]-2H 4H 5H 6H-pyrrolo[3,4-c]pyrazole]
100 to 1000 nM	C[C@H](Oc1ccc(C#N)cc1C(=O)N1Cc2cn(CC3CC3)nc2C1)C(F)(F)F [Example 451, 3-[2-(Cyclopropylmethyl)-2H 4H 5H 6H-pyrrolo[3,4-c]pyrazole-5-carbonyl]-4-{[(2S)-1 1 1-trifluoropropan-2-yl]oxy}benzonitrile]
1000 to 10000 nM	CS(=O)(=O)c1ccc(-c2cccc(F)c2)c(C(=O)N2Cc3cnn(CC4CC4)c3C2)c1 [Example 452, 1-(Cyclopropylmethyl)-5-[2-(3-fluorophenyl)-5-methanesulfonylbenzoyl]-1H 4H 5H 6H-pyrrolo[3,4-c]pyrazole]
< 100 nM	CS(=O)(=O)c1ccc(-c2cccc(F)c2)c(C(=O)N2Cc3cn(CC4CC4(F)F)nc3C2)c1 (centres unmarked) [Example 453, 2-[(2 2-Difluorocyclopropyl)methyl]-5-[2-(3-fluorophenyl)-5-methanesulfonylbenzoyl]-2H 4H 5H 6H-pyrrolo[3,4-c]pyrazole]
1000 to 10000 nM	CS(=O)(=O)c1ccc(-c2cccc(F)c2)c(C(=O)N2Cc3cnn(CC4CC4(F)F)c3C2)c1 (centres unmarked) [Example 454, 1-[(2 2-Difluorocyclopropyl)methyl]-5-[2-(3-fluorophenyl)-5-methanesulfonylbenzoyl]-1H 4H 5H 6H-pyrrolo[3,4-c]pyrazole]
< 100 nM	C[C@H](Oc1ccc(S(C)(=O)=O)cc1C(=O)N1Cc2cn(CC3CC3(F)F)nc2C1)C(F)(F)F (stereo partly drawn) [Example 455, 2-[(2 2-Difluorocyclopropyl)methyl]-5-(5-methanesulfonyl-2-{[(2S)-1 1 1-trifluoropropan-2-yl]oxy}benzoyl)-2H 4H 5H 6H-pyrrolo[3,4-c]pyrazole]
100 to 1000 nM	CC(C)Oc1ccc(C#N)cc1C(=O)N1Cc2cn(CC3CC3(F)F)nc2C1 (centres unmarked) [Example 456, 3-{2-[(2 2-Difluorocyclopropyl)methyl]-2H 4H 5H 6H-pyrrolo[3,4-c]pyrazole-5-carbonyl}-4-(propan-2-yloxy)benzonitrile]
< 100 nM	CC(C)Oc1ccc(S(C)(=O)=O)cc1C(=O)N1Cc2cn(CC3CC(F)(F)C3)nc2C1 [Example 461, 2-[(3 3-Difluorocyclobutyl)methyl]-5-[5-methanesulfonyl-2-(propan-2-yloxy)benzoyl]-2H 4H 5H 6H-pyrrolo[3,4-c]pyrazole]
100 to 1000 nM	C[C@H](Oc1ccc(C#N)cc1C(=O)N1Cc2cn(CC3CC(F)(F)C3)nc2C1)C(F)(F)F [Example 462, 3-{2-[(3 3-Difluorocyclobutyl)methyl]-2H 4H 5H 6H-pyrrolo[3,4-c]pyrazole-5-carbonyl}-4-{[(2S)-1 1 1-trifluoropropan-2-yl]oxy}benzonitrile]
< 100 nM	C[C@H](Oc1ccc(S(C)(=O)=O)cc1C(=O)N1Cc2cn(CC3CC(F)(F)C3)nc2C1)C(F)(F)F [Example 463]
< 100 nM	CS(=O)(=O)c1ccc(-c2cccc(F)c2)c(C(=O)N2Cc3cn(CC4CC(F)(F)C4)nc3C2)c1 [Example 464, 2-[(3 3-Difluorocyclobutyl)methyl]-5-[2-(3-fluorophenyl)-5-methanesulfonylbenzoyl]-2H 4H 5H 6H-pyrrolo[3,4-c]pyrazole]
< 100 nM	CS(=O)(=O)c1ccc(-c2cccc(F)c2)c(C(=O)N2Cc3cn(C4CCC(F)(F)CC4)nc3C2)c1 [Example 469, 2-(4 4-Difluorocyclohexyl)-5-[2-(3-fluorophenyl)-5-methanesulfonylbenzoyl]-2H 4H 5H 6H-pyrrolo[3,4-c]pyrazole]
< 100 nM	CC(C)Oc1ccc(S(C)(=O)=O)cc1C(=O)N1Cc2cn(C3CCC(F)(F)CC3)nc2C1 [Example 470, 2-(4 4-Difluorocyclohexyl)-5-[5-methanesulfonyl-2-(propan-2-yloxy)benzoyl]-2H 4H 5H 6H-pyrrolo[3,4-c]pyrazole]
< 100 nM	C[C@H](Oc1ccc(S(C)(=O)=O)cc1C(=O)N1Cc2cn(C3CCC(F)(F)CC3)nc2C1)C(F)(F)F [Example 471, 2-(4 4-Difluorocyclohexyl)-5-(5-methanesulfonyl-2-{[(2S)-1 1 1-trifluoropropan-2-yl]oxy}benzoyl)-2H 4H 5H 6H-pyrrolo[3,4-c]pyrazole]
